From patent publication US11266655B2, “Methods and compositions for treating urea cycle disorders” (Camp4 Therapeutics Corporation, priority 2019, dated 2022)
Values joined by “and” are separate entries in the source; they are usually repeats but may differ in a detail not shown here. Identical values can stand only once. Counter-ions that a name gives are not always drawn. Like-named read-outs stand apart in the source and are kept apart here.

Assays:
[1] = test system: OTC; assay: HSP90 or HSP70 inhibitors in primary human hepatocytes, OTC mRNA; assay type: cell-based; conditions: hepatocytes from Donor B, normalized to B2M
Description: (§1) Additional small molecules that inhibit HSP90 or HSP70 were tested in primary human hepatocytes as described in Example 2. HSP90 or HSP70 inhibitors were tested in triplicate at 0.3 μM and 3 μM. The results are shown as the fold change (mRNA FC) in the mRNA levels of OTC and CPS1 genes after treatment compared to an untreated control (DMSO) and the standard deviation (SD). In addition, a dose titration experiment was performed with selected HSP90 inhibitors. Hepatocytes were incubated with increasing concentrations of HSP90 inhibitors and the changes in OTC and CPS1 expression quantified as previously described.
(§2) HSP90 and HSP70 inhibitors were compared to confirm the role of HSP90 in modulating OTC and CPS1 expression. Hepatocytes from Donor B were incubated with various HSP90 inhibitors or an HSP70 inhibitor, Pifithrin-μ, and then harvested for mRNA quantification. OTC and CPS1 mRNA levels were normalized to B2M.

[2] = test system: CPS1; assay: HSP90 or HSP70 inhibitors in primary human hepatocytes, CPS1 mRNA; assay type: cell-based; conditions: hepatocytes from Donor B, normalized to B2M
Description: as §1, §2

[3] = test system: OTC; assay: JAK inhibitors at 0.3 and 3 μM in primary human hepatocytes, OTC mRNA fold change; assay type: cell-based; conditions: fold change vs DMSO
Description: (§3) Additional small molecules that inhibit JAK1, JAK2, JAK3, or a combination of the JAK proteins were tested in primary human hepatocytes as described in Example 2. JAK inhibitors were tested in triplicate at 0.3 μM and 3 μM. The results are shown as the fold change (mRNA FC) in the mRNA levels of OTC and CPS1 genes after treatment compared to an untreated control (DMSO) and the standard deviation (SD).

[4] = test system: CPS1; assay: JAK inhibitors at 0.3 and 3 μM in primary human hepatocytes, CPS1 mRNA fold change; assay type: cell-based; conditions: fold change vs DMSO
Description: as §3

[5] = test system: OTC; assay: JAK1 inhibitor dose titration in hepatocytes of donors A and B, OTC mRNA normalized to B2M; assay type: cell-based, human; conditions: normalized to B2M
Description: (§4) Next, two JAK1 inhibitors were tested at increasing concentrations in a dose titration assy. Hepatocytes from two different donors (A and B) were incubated with the various concentrations of upadacitinib or oclacitinib maleate and harvested for mRNA analysis. OTC and CPS1 mRNA were normalized to house keeping gene B2M gene expression.

[6] = test system: CPS1; assay: JAK1 inhibitor dose titration in hepatocytes of donors A and B, CPS1 mRNA normalized to B2M; assay type: cell-based, human; conditions: normalized to B2M
Description: as §4

[7] = test system: NAGS; assay type: cell-based, human
[8] = test system: OTC; assay: OTC expression modulated by compounds, OTC/GeoMean of housekeeping genes, DMSO = 1 (Table 3A); assay type: cell-based, human; conditions: 10 uM final concentration
[9] = test system: ASS1; assay: RNA-seq of compound-treated primary human hepatocytes, ASS1 expression; assay type: cell-based; conditions: primary human hepatocytes, triplicate (Table 15, FIG. 7)
[10] = test system: SLC25A15; assay: RNA-seq of compound-treated primary human hepatocytes, SLC25A15 expression; assay type: cell-based; conditions: primary human hepatocytes, triplicate (Table 24, FIG. 16A-B)
[11] = test system: SLC25A13; assay: RNA-seq of compound-treated primary human hepatocytes, SLC25A13 expression; assay type: cell-based; conditions: primary human hepatocytes, triplicate (Table 23, FIG. 15)
[12] = test system: OTC; assay: RNA-seq of compound-treated primary human hepatocytes, OTC expression; assay type: cell-based; conditions: primary human hepatocytes, RNA-seq
[13] = test system: ARG1; assay: RNA-seq of compound-treated primary human hepatocytes, ARG1 expression; assay type: cell-based; conditions: primary human hepatocytes
[14] = test system: urea cycle genes; assay: RNA-seq of primary human hepatocytes, compounds that modulate multiple urea cycle-related genes; assay type: cell-based; conditions: primary human hepatocytes, RNA-seq
[15] = test system: CPS1; assay: RNA-seq of compound-treated primary human hepatocytes, CPS1 expression; assay type: cell-based; conditions: 3 μM, primary human hepatocytes, triplicate (Table 19, FIG. 11)

In the case of `CO[C@H]1/C=C\C=C(/C)C(=O)NC2=CC(=O)C(NCCN(C)C)=C(C[C@@H](C)C[C@H](OC)[C@H](O)[C@@H](C)/C=C(\C)[C@@H]1OC(N)=O)C2=O` [Alvespimycin hydrochloride], the “OTC Expression mRNA FC” value ([1]; 0.3 uM) is reported as 1.94, the “OTC Expression mRNA FC” value ([1]; 3 uM) is reported as 1.03 and the “CPS1 Expression mRNA FC” value ([2]; 0.3 uM) is reported as 1.41. For the same compound, the “CPS1 Expression mRNA FC” value ([2]; 3 uM) was 1.54.

For `CC[C@@H]1CN(C(=O)NCC(F)(F)F)C[C@@H]1c1cnc2cnc3[nH]ccc3n12` [upadacitinib], the “OTC mRNA FC” value ([3]; 0.3 uM) was 2.91, the “OTC mRNA FC” value ([3]; 3 uM) was 2.75 and the “CPS1 mRNA FC” value ([4]; 0.3 uM) was 2.02. The “CPS1 mRNA FC” value ([4]; 3 uM) was 1.39, the “OTC mRNA FC, Donor A” value ([5]; 0.1 uM) was 1.36 and the “OTC mRNA FC, Donor B” value ([5]; 0.1 uM) was 1.56. For the same compound, the “OTC mRNA FC, Donor A” value ([5]; 0.3 uM) was 1.99, the “OTC mRNA FC, Donor B” value ([5]; 0.3 uM) was 2.06 and the “OTC mRNA FC, Donor A” value ([5]; 1 uM) was 3.17. The “OTC mRNA FC, Donor B” value ([5]; 1 uM) was 3.54, the “OTC mRNA FC, Donor A” value ([5]; 3 uM) was 4.81 and the “OTC mRNA FC, Donor B” value ([5]; 3 uM) was 4.66. The “OTC mRNA FC, Donor A” value ([5]; 10 uM) was 6.77, the “OTC mRNA FC, Donor B” value ([5]; 10 uM) was 9.39 and the “CPS1 mRNA FC, Donor A” value ([6]; 0.1 uM) was 1.26. The “CPS1 mRNA FC, Donor B” value ([6]; 0.1 uM) was 3.74, the “CPS1 mRNA FC, Donor A” value ([6]; 0.3 uM) was 1.58 and the “CPS1 mRNA FC, Donor B” value ([6]; 0.3 uM) was 2.54. The “CPS1 mRNA FC, Donor A” value ([6]; 1 uM) was 2.70, the “CPS1 mRNA FC, Donor B” value ([6]; 1 uM) was 2.38 and the “CPS1 mRNA FC, Donor A” value ([6]; 3 uM) was 3.15. For the same compound, the “CPS1 mRNA FC, Donor B” value ([6]; 3 uM) was 1.43, the “CPS1 mRNA FC, Donor A” value ([6]; 10 uM) was 4.25 and the “CPS1 mRNA FC, Donor B” value ([6]; 10 uM) was 1.21.

`COc1cc2c(cc1OC)CN(C(=O)/C=C/c1c(-c3ccccc3)n(C)c3ncccc13)CC2` [SIS3] was tested, and the “Fold change (Log 2) vs untreated, NAGS expression” value [7] was 0.64 Log 2 and the “Max Value (OTC/GeoMean of HKs; DMSO = 1)” value [8] was 1.46.

With `C=CCNC1=C2C[C@@H](C)C[C@H](OC)[C@H](O)[C@@H](C)/C=C(\C)[C@H](OC(N)=O)[C@@H](OC)/C=C\C=C(/C)C(=O)NC(=CC1=O)C2=O` [17-AAG (Tanespimycin), Tanespimycin] the “Relative ASS1 level vs Untreated (±Standard Deviation)” value ([9]; 0.3 μM) was 1.37 ± 0.11, the “Relative ASS1 level vs Untreated (±Standard Deviation)” value ([9]; 1 μM) was 1.46 ± 0.07 and the “Relative SLC25A15 level vs Untreated (±Standard Deviation)” value ([10]; 0.3 μM) was 1.48 ± 0.01. For the same compound, the “Relative SLC25A15 level vs Untreated (±Standard Deviation)” value ([10]; 1 μM) was 1.40 ± 0.05, the “Relative SLC25A15 level vs Untreated (±Standard Deviation)” value ([10]; 3 μM) was 1.51 ± 0.09 and the “Relative SLC25A15 level vs Untreated (±Standard Deviation)” value ([10]; 10 μM) was 1.46 ± 0.14. The “Relative SLC25A13 level vs Untreated (±Standard Deviation)” value ([11]; 0.3 μM) was 1.48 ± 0.01, the “Relative SLC25A13 level vs Untreated (±Standard Deviation)” value ([11]; 1 μM) was 1.40 ± 0.05 and the “Relative SLC25A13 level vs Untreated (±Standard Deviation)” value ([11]; 3 μM) was 1.51 ± 0.09. The “Relative SLC25A13 level vs Untreated (±Standard Deviation)” value ([11]; 10 μM) was 1.46 ± 0.14, the “OTC Expression mRNA FC” value ([1]; 0.3 uM) was 5.01 and the “OTC Expression mRNA FC” value ([1]; 3 uM) was 2.84. The “CPS1 Expression mRNA FC” value ([2]; 0.3 uM) was 1.79 and the “CPS1 Expression mRNA FC” value ([2]; 3 uM) was 2.51.

For `NS(=O)(=O)C#Cc1ccccc1` [Pifithrin-μ], the “OTC expression, Fold change (Log 2) vs untreated” value [12] was 0.79 Log 2, the “Fold change (Log 2) vs untreated, NAGS expression” value ([7]; primary human hepatocytes, RNA-seq (Table 6)) was 1.18 Log 2 and the “Fold change (Log 2) vs untreated, ARG1 expression” value ([13]; RNA-seq (Table 7)) was 1.87 Log 2. The “number of urea cycle genes whose expression was significantly up-regulated” value [14] was “three”, the “Up-regulated Genes” value ([14]; urea cycle-related genes significantly increased (Table 10)) was “OTC, NAGS, ARG1” and the “OTC Expression mRNA FC” value ([1]; 0.3 uM) was 1.20. The “OTC Expression mRNA FC” value ([1]; 3 uM) was 1.29, the “CPS1 Expression mRNA FC” value ([2]; 0.3 uM) was 0.98 and the “CPS1 Expression mRNA FC” value ([2]; 3 uM) was 1.05.

With `CC1(C)CC(=O)c2c(C(F)(F)F)nn(-c3ccc(C(N)=O)c(N[C@H]4CC[C@H](OC(=O)CN)CC4)c3)c2C1` [PF-04929113] the “Relative CPS1 level vs Untreated (±Standard Deviation)” value [15] was 1.38 ± 0.13, the “OTC Expression mRNA FC” value ([1]; 0.3 uM) was 1.77 and the “OTC Expression mRNA FC” value ([1]; 3 uM) was 4.28. For the same compound, the “CPS1 Expression mRNA FC” value ([2]; 0.3 uM) was 1.62 and the “CPS1 Expression mRNA FC” value ([2]; 3 uM) was 2.09.

With `CCNC(=O)c1noc(-c2cc(C(C)C)c(O)cc2O)c1-c1ccc(CN2CCOCC2)cc1` [Luminespib] the “Relative NAGS level vs Untreated (±Standard Deviation)” value ([7]; 1 μM, primary human hepatocytes, triplicate (Table 21, FIG. 13)) was 1.32 ± 0.30, the “Relative ARGI level vs Untreated (±Standard Deviation)” value ([13]; 10 μM, triplicate (Table 17, FIG. 9)) was 1.34 ± 0.07 and the “Relative SLC25A15 level vs Untreated (±Standard Deviation)” value ([10]; 3 μM) was 1.32 ± 0.24. The “Relative SLC25A15 level vs Untreated (±Standard Deviation)” value ([10]; 10 μM) was 1.55 ± 0.02 and 1.82 ± 0.08, the “Relative SLC25A13 level vs Untreated (±Standard Deviation)” value ([11]; 10 μM) was 1.55 ± 0.02 and the “OTC Expression mRNA FC” value ([1]; 0.3 uM) was 0.81. For the same compound, the “OTC Expression mRNA FC” value ([1]; 3 uM) was 3.07, the “CPS1 Expression mRNA FC” value ([2]; 0.3 uM) was 0.86 and the “CPS1 Expression mRNA FC” value ([2]; 3 uM) was 1.39.

For `Cc1cc(Nc2cc(CN3CCOCC3)c3nc(C)c(Cc4ccc(Cl)cc4F)n3n2)n[nH]1` [LY2784544], the “Max Value (OTC/GeoMean of HKs; DMSO = 1)” value [8] was 2.78.

With `CSCC[C@H](N)C(=O)N[C@@]1(C(=O)O)CS(=O)(=O)[C@H]2[C@H](C(=O)O)[C@H]21` [pomaglumetad methionil] the “Max Value (OTC/GeoMean of HKs; DMSO = 1)” value [8] was 1.49.
